One test relates to HIV-IIIB + 50% HS. Description: Standard AVE (50% Human Serum), HIV-1 replication assay in MT4-LTR-EGFP cells. It counts as cell-based. To be noted: fold change vs EC50 in the assay without human serum. The source says:
The HIV-1 replication assay (with 50% human serum) measures virus replication as an induction of enhanced green fluorescent protein (EGFP) expression, in the presence of 50% human serum. The indicator MT4-LTR-EGFP cells contain an EGFP gene under the control of the HIV-1 LTR promoter sequence. Successful HIV-1 infection results in viral Tat protein expression and subsequent induction of EGFP expression. Compounds/peptides inhibiting HIV-1 infection are expected to reduce EGFP expression as compared to the untreated HIV-infected control. Compounds/peptides binding to human serum are expected to have a reduced activity for inhibiting the virus in the assay.
Serial 4-fold dilutions of test compounds/peptides were mixed with HIV-1 and MT4-LTR-EGFP cells and incubated at 37° C., in the presence of 50% human serum. After 3 days, the wells were examined for EGFP expression using an argon laser-scanning microscope. The effective compound/peptide concentration inhibiting 50% of the virus-induced EGFP signal (EC50) was determined by linear interpolation of the EGFP signal vs. logarithm of the compound concentration; T20, C34 and Sifuvirtide were added as reference compounds. Results were reported as a fold change in EC50, as compared with the acquired EC50 in the assay without human serum.

The subject of test [1] is HIV wild type virus strain IIIB. Briefly: Standard Anti-Viral-Experiment (AVE), HIV-1 replication assay in MT4-LTR-EGFP cells, wild type IIIB. It counts as cell-based. To be noted: 3 days, EGFP signal. An excerpt:
• Standard Anti-Viral-Experiment “AVE” (wild type HIV strain IIIB+HIV strain HXB2D side directed mutants V38A and Q40H)
The HIV-1 replication assay measures virus replication (HIV wild type virus strain 111B or HXB2D, or a HIV mutant virus strain HXB2D with mutation V38A or Q40H in the gp41 gene) as an induction of enhanced green fluorescent protein (EGFP) expression. The indicator MT4-LTR-EGFP cells contain an EGFP gene under the control of the HIV-1 LTR promoter sequence. Successful HIV-1 infection results in viral Tat protein expression and subsequent induction of EGFP expression. Compounds/peptides inhibiting HIV-1 infection are expected to reduce EGFP expression as compared to the untreated HIV-infected control.
Serial 4-fold dilutions of test compounds/peptides were mixed with HIV-1 (IIIB, HXB2D, or a HXB2D mutant virus (V38A or Q40H)) and MT4-LTR-EGFP cells and incubated at 37° C. After 3 days, the wells were examined for EGFP expression using an argon laser-scanning microscope. The effective compound/peptide concentration inhibiting 50% of the virus-induced EGFP signal (EC50) was determined by linear interpolation of the EGFP signal vs. logarithm of the compound concentration; (T20, C34 and Sifuvirtide were added as reference compounds). For the V38A and Q40H mutant viruses, results were reported as a fold change in EC50, as compared with a drug-susceptible wild type strain HXB2D, which forms the backbone of the mutant virus. • Standard AVE (50% Human Serum)

Test [2] has as its target gp41 of HIV-1 strain HXB2D with mutation V38A (HIV-1 strain HXB2D, UniProt P04578). Description: cell-based or functional assay.

Starred links: 1 amine or outer side, 2 acyl side, 3 side chain; linkers in the order of their positions; H or OH if unused. Positions of bridges follow the written chain, without caps; N, C: chain ends. Non-standard residues stand in square brackets, D forms with d. Primed or numbered codes have the meaning given here. *: point of attachment. B21″ = 2,7-dimethylnaphtyl linker joining two Cys, c1cc2ccc(C[*:2])cc2cc1C[*:1]; tBuAla = CC(C)(C)C[C@H](N)C(=O)O; Suc = O=C(CCC(=O)[*:2])[*:1]; Isovaleryl = CC(C)CC(=O)*; Pentanoyl = CCCCC(=O)*; B1 = not defined here; B2 = not defined here

Data on 23 molecules can be found in patent US20140357577A1, “HIV Membrane Fusion Inhibitors” (priority 2011, published 2014).

By EC50 is commonly meant the concentration that produces a half-maximal response. As to “AC-ACYAACIEALIRAAQEQQEKNEAALR-NH2 [Peptide 89]”, the “HIV-IIIB + 50% HS (Fold change in EC50)” value with HIV-IIIB + 50% HS is recorded as 3. Moreover, in test [1], the EC50 worked out at 18 nM.

Turning to “AC-ACYAACIEALIRAAREQQEKNEAALR-NH2 [Peptide 84]”, in the test on HIV-IIIB + 50% HS, the “HIV-IIIB + 50% HS (Fold change in EC50)” value was determined as 4. This molecule came in with an EC50 in test [1] of 13 nM. Taken in the same sequence, the figures for “AC-ACYWACIEALIRAAQEQQEKNEAALR-NH2 [Peptide 63]” were 3 and 7 nM.

Consider “AC-ECYAACIEALIRAAQEQQEKNEAALR-NH2 [Peptide 74]”, for which the “HIV-IIIB + 50% HS (Fold change in EC50)” value in the test with HIV-IIIB + 50% HS amounted to 0.9. Moreover, the EC50 in test [1] stood at 53 nM.

In the case of ANYAALIEALIRKAQEQQEKNEAALR [Peptide 5], the “HIV-IIIB + 50% HS (Fold change in EC50)” value with HIV-IIIB + 50% HS was found to be 0.5. Also, the EC50 in test [1] came to 48 nM. In the same order, the values of ANYLALIEALIRAAQEQQEKNEAALR [Peptide 6] are 0.7 and 5 nM. As to “Ac-ACYAACIDALIRAAQEQQEKNEAALR-NH2 [Peptide 70]”, the “HIV-IIIB + 50% HS (Fold change in EC50)” value in the test with HIV-IIIB + 50% HS came out at 1. Besides, the EC50 in test [1] is 23 nM. In the same order, the values of “Ac-ACYAACIEALIRAAQEQQEKNEAALR-NH2 [Peptide 64]” are 0.8 and 56 nM. Taken in the same sequence, the figures for “Ac-ACYAACIEALIRAAQEQQEKNEAALR-NH2 [Peptide 65]” were 1 and 17 nM. Take “Ac-ACYAACIEALIRAAQEQQEKNEALLR-NH2 [Peptide 73]”: the “HIV-IIIB + 50% HS (Fold change in EC50)” value with HIV-IIIB + 50% HS came to 3. The same molecule registered a concentration for a half-maximal effect (EC50) in test [1] of 21 nM. In the same order, the values of “Ac-ACYAACIEALIRKAQEQQEKNEAALR-NH2 [Peptide 71]” are 1 and 8 nM. Turning to “Ac-ACYAACIEELIRKAQEQQEKNEAALR-NH2 [Peptide 72]”, the “HIV-IIIB + 50% HS (Fold change in EC50)” value in the test with HIV-IIIB + 50% HS worked out at 0.6. For the same molecule, the EC50 in test [1] turned out to be 15 nM.

Regarding “Ac-ACYAAcIEALIRAAQEQQEKNEAALR-NH2 [Peptide 83]”, the “HIV-IIIB + 50% HS (Fold change in EC50)” value with HIV-IIIB + 50% HS amounted to 3. Moreover, in test [1], the EC50 is 54 nM. In the case of “Ac-ACYFACIEALIRAAQEQQEKNEAALR-NH2 [Peptide 61]”, in the test on HIV-IIIB + 50% HS, the “HIV-IIIB + 50% HS (Fold change in EC50)” value stood at 4. Also, the EC50 in test [1] worked out at 4 nM. On to “Ac-ACYIACIEALIRAAQEQQEKNEAALR-NH2 [Peptide 57]”, for which the “HIV-IIIB + 50% HS (Fold change in EC50)” value in the test with HIV-IIIB + 50% HS is reported as 2. In test [1], this molecule registered an EC50 of 4 nM. In the case of “Ac-aCYAACIEALIRAAQEQQEKNEAALr-NH2 [Peptide 76]”, the “HIV-IIIB + 50% HS (Fold change in EC50)” value in the test with HIV-IIIB + 50% HS came to 2.

B1: peptide 19 (peptide)
peptide: Suc-ENYLALIEELIRKAQEQQEKNEAALR-NH2
SMILES: CC[C@H](C)[C@H](NC(=O)[C@H](CC(C)C)NC(=O)[C@H](C)NC(=O)[C@H](CC(C)C)NC(=O)[C@H](Cc1ccc(O)cc1)NC(=O)[C@H](CC(N)=O)NC(=O)[C@H](CCC(=O)O)NC(=O)CCC(=O)O)C(=O)N[C@@H](CCC(=O)O)C(=O)N[C@@H](CCC(=O)O)C(=O)N[C@@H](CC(C)C)C(=O)N[C@H](C(=O)N[C@@H](CCCNC(=N)N)C(=O)N[C@@H](CCCCN)C(=O)N[C@@H](C)C(=O)N[C@@H](CCC(N)=O)C(=O)N[C@@H](CCC(=O)O)C(=O)N[C@@H](CCC(N)=O)C(=O)N[C@@H](CCC(N)=O)C(=O)N[C@@H](CCC(=O)O)C(=O)N[C@@H](CCCCN)C(=O)N[C@@H](CC(N)=O)C(=O)N[C@@H](CCC(=O)O)C(=O)N[C@@H](C)C(=O)N[C@@H](C)C(=O)N[C@@H](CC(C)C)C(=O)N[C@@H](CCCNC(=N)N)C(N)=O)[C@@H](C)CC
Take B1: the “fold change in EC50, HIV-HXB2D V38A mutant” value in test [2] was determined as 22 fold. Still for that read-out and setting: next, Suc-CYLACIEELIRKAQEQQEKNEAAL[tBuAla]-NH2 (linker 1-5 via B2; reading uncertain) [peptide 23]: 45 fold; Ac-CYAACIEALIRAAQEQQEKNEAALR-NH2 (linker 1-5 via B1; reading uncertain) [peptide 21]: 75 fold.

B2: peptide 16 (peptide)
peptide: Pentanoyl-ANYAALIEALIRKAQEQQEKNEAALR-NH2
SMILES: CCCCC(=O)N[C@@H](C)C(=O)N[C@@H](CC(N)=O)C(=O)N[C@@H](Cc1ccc(O)cc1)C(=O)N[C@@H](C)C(=O)N[C@@H](C)C(=O)N[C@@H](CC(C)C)C(=O)N[C@H](C(=O)N[C@@H](CCC(=O)O)C(=O)N[C@@H](C)C(=O)N[C@@H](CC(C)C)C(=O)N[C@H](C(=O)N[C@@H](CCCNC(=N)N)C(=O)N[C@@H](CCCCN)C(=O)N[C@@H](C)C(=O)N[C@@H](CCC(N)=O)C(=O)N[C@@H](CCC(=O)O)C(=O)N[C@@H](CCC(N)=O)C(=O)N[C@@H](CCC(N)=O)C(=O)N[C@@H](CCC(=O)O)C(=O)N[C@@H](CCCCN)C(=O)N[C@@H](CC(N)=O)C(=O)N[C@@H](CCC(=O)O)C(=O)N[C@@H](C)C(=O)N[C@@H](C)C(=O)N[C@@H](CC(C)C)C(=O)N[C@@H](CCCNC(=N)N)C(N)=O)[C@@H](C)CC)[C@@H](C)CC
As for B2, the “fold change in EC50, HIV-HXB2D V38A mutant” value in test [2] worked out at 49 fold.

B3: peptide 20 (peptide)
peptide: Suc-ENYLRLIEELIRKAQEQQEKNEAALR-NH2
SMILES: CC[C@H](C)[C@H](NC(=O)[C@H](CC(C)C)NC(=O)[C@H](CCC(=O)O)NC(=O)[C@H](CCC(=O)O)NC(=O)[C@@H](NC(=O)[C@H](CC(C)C)NC(=O)[C@H](CCCNC(=N)N)NC(=O)[C@H](CC(C)C)NC(=O)[C@H](Cc1ccc(O)cc1)NC(=O)[C@H](CC(N)=O)NC(=O)[C@H](CCC(=O)O)NC(=O)CCC(=O)O)[C@@H](C)CC)C(=O)N[C@@H](CCCNC(=N)N)C(=O)N[C@@H](CCCCN)C(=O)N[C@@H](C)C(=O)N[C@@H](CCC(N)=O)C(=O)N[C@@H](CCC(=O)O)C(=O)N[C@@H](CCC(N)=O)C(=O)N[C@@H](CCC(N)=O)C(=O)N[C@@H](CCC(=O)O)C(=O)N[C@@H](CCCCN)C(=O)N[C@@H](CC(N)=O)C(=O)N[C@@H](CCC(=O)O)C(=O)N[C@@H](C)C(=O)N[C@@H](C)C(=O)N[C@@H](CC(C)C)C(=O)N[C@@H](CCCNC(=N)N)C(N)=O
Take B3: the “fold change in EC50, HIV-HXB2D V38A mutant” value in test [2] turned out to be 8 fold.

B4: peptide 17 (peptide)
peptide: Isovaleryl-ANYAALIEALIRAAQEQQEKNEAALR-NH2
SMILES: CC[C@H](C)[C@H](NC(=O)[C@H](CC(C)C)NC(=O)[C@H](C)NC(=O)[C@H](CCC(=O)O)NC(=O)[C@@H](NC(=O)[C@H](CC(C)C)NC(=O)[C@H](C)NC(=O)[C@H](C)NC(=O)[C@H](Cc1ccc(O)cc1)NC(=O)[C@H](CC(N)=O)NC(=O)[C@H](C)NC(=O)CC(C)C)[C@@H](C)CC)C(=O)N[C@@H](CCCNC(=N)N)C(=O)N[C@@H](C)C(=O)N[C@@H](C)C(=O)N[C@@H](CCC(N)=O)C(=O)N[C@@H](CCC(=O)O)C(=O)N[C@@H](CCC(N)=O)C(=O)N[C@@H](CCC(N)=O)C(=O)N[C@@H](CCC(=O)O)C(=O)N[C@@H](CCCCN)C(=O)N[C@@H](CC(N)=O)C(=O)N[C@@H](CCC(=O)O)C(=O)N[C@@H](C)C(=O)N[C@@H](C)C(=O)N[C@@H](CC(C)C)C(=O)N[C@@H](CCCNC(=N)N)C(N)=O
As to B4, in test [2], the “fold change in EC50, HIV-HXB2D V38A mutant” value came out at 75 fold.

B5: peptide 22 (peptide)
peptide: Ac-CYAACIEALIRAAQEQQEKNEAALR-NH2
modifications: linker 1-5 via B21″
SMILES: CC[C@H](C)[C@H](NC(=O)[C@H](CC(C)C)NC(=O)[C@H](C)NC(=O)[C@H](CCC(=O)O)NC(=O)[C@@H](NC(=O)[C@@H]1CSCc2ccc3ccc(cc3c2)CSC[C@H](NC(C)=O)C(=O)N[C@@H](Cc2ccc(O)cc2)C(=O)N[C@@H](C)C(=O)N[C@@H](C)C(=O)N1)[C@@H](C)CC)C(=O)N[C@@H](CCCNC(=N)N)C(=O)N[C@@H](C)C(=O)N[C@@H](C)C(=O)N[C@@H](CCC(N)=O)C(=O)N[C@@H](CCC(=O)O)C(=O)N[C@@H](CCC(N)=O)C(=O)N[C@@H](CCC(N)=O)C(=O)N[C@@H](CCC(=O)O)C(=O)N[C@@H](CCCCN)C(=O)N[C@@H](CC(N)=O)C(=O)N[C@@H](CCC(=O)O)C(=O)N[C@@H](C)C(=O)N[C@@H](C)C(=O)N[C@@H](CC(C)C)C(=O)N[C@@H](CCCNC(=N)N)C(N)=O
In the case of B5, in test [2], the “fold change in EC50, HIV-HXB2D V38A mutant” value worked out at 19 fold.
